# In US10519105B2, “KCNQ2-5 channel activator” (ONO PHARMACEUTICAL CO., LTD., priority 2016, dated 2019):
# What was measured:
# Human KCNQ2/3 channel = biological target: T1, Human KCNQ2/3 channel (Homo sapiens, UniProt O43525+O43526); assay: Opening action with respect to KCNQ2/3 channel by depolarization stimulation (thallium influx, FLIPR); type: cell-based; details: concentration giving 50% of the maximum reaction of retigabine (10 μM); human KCNQ2/3 expressing CHO-DHFR- cells; read-out: KCNQ2/3 ECrtg50
# T1 construct: expressed in transfected cells; host or cells: CHO-DHFR- cells
# Method: Human KCNQ2/3 expression cells (CHO-DHFR− cells) were seeded in each well of a 384-well plate (collagen-coated, black, clear bottom) at 0.5×10^4 cells/50 μL per well and cultured using a MEM ALPHA medium (containing 10 vol % inactivated (56° C., 30 min) fetal bovine serum, 100 IU/mL penicillin, 100 μg/mL streptomycin, and 2 mM L-glutamine) at 37° C. in 5% CO2 for 18 to 24 hours. After the medium in the plate was removed, incubation (room temperature, 60 minutes, shading) was performed in a loading buffer (prepared by the method described in the manual of FluxOR Thallium Detection Kit (Invitrogen, F10016, F10017)). A KCNQ2/3 channel opening action (thallium influx into cells) by depolarization stimulation (5 mM potassium and 0.5 mM thallium) was measured by FLIPR TETRA (Molecular Devices). The compound of the present invention was treated 5 minutes before the depolarization stimulation, and the reaction induced by the depolarization stimulation was measured over time for 180 seconds. The channel opening action of the compound of the present invention was evaluated based on the change amount of the fluorescence intensity from the time before the depolarization stimulation to the time after the elapse of 180 seconds, and the concentration (ECrtg50) satisfying 50% of the fluorescence intensity change of a maximum reaction (in the treatment at 10 μM) of retigabine under the conditions of this experiment was calculated.
# [1] = Solubility test (DMSO precipitation method, Japanese Pharmacopoeia dissolution test second solution); type: physicochemical; details: aqueous buffer, kinetic from dmso stock, JP dissolution test second solution pH 6.8, room temperature, quantification range 5 to 100 μM
# Method: A calibration curve solution was prepared at 0.1, 0.4, and 2 μM by diluting a test substance (a 10 mM DMSO solution) with acetonitrile and adding acetonitrile containing an internal standard substance (candesartan).
# A sample solution was prepared as follows. 5 μL of the compound of the present invention (a 10 mM DMSO solution) was added to 495 μL of the Japanese Pharmacopoeia dissolution test second solution (pH: 6.8), followed by stirring at room temperature for 5 hours. Then, the solution was transferred to a solubility filter plate and subjected to suction filtration. The filtrate (20 μL) was diluted with acetonitrile, followed by adding acetonitrile containing an internal standard substance (candesartan).
# Each of the calibration curve and sample solutions (5 μL) was injected into LC-MS/MS (Discovery Max, manufactured by Thermo Scientific, Inc.) and subjected to quantification (quantification range: 5 to 100 μM). The solubility in the case where the value equal to or less than the quantification range was obtained was defined as <5 μM, and the solubility in the case where the value equal to or more than the quantification range was obtained was defined as […].
Compound,EC50 (Human KCNQ2/3 channel) [nM],solubility at 5 h [1] [µM]
"CC1(O)CCc2c1cc(Cl)c(NC(=O)NCCc1ccc(F)cc1)c2Cl (stereo not drawn) [Example 3(7), 1-(4,6-dichloro-1-hydroxy-1-methyl-2,3-dihydro-1H-inden-5-yl)-3-[2-(4-fluorophenyl)ethyl]urea]",500,86
"CC1(O)CCc2c1cc(Cl)c(NC(=O)NCc1cccc(C(F)(F)F)c1)c2Cl (stereo not drawn) [Example 3(9), 1-(4,6-dichloro-1-hydroxy-1-methyl-2,3-dihydro-1H-inden-5-yl)-3-[3-(trifluoromethyl)benzyl]urea]",40,–
"CC1(O)CCc2c1cc(Cl)c(NC(=O)NC(C)(C)c1ccc(F)cc1)c2Cl (stereo not drawn) [Example 3(10), 1-(4,6-dichloro-1-hydroxy-1-methyl-2,3-dihydro-1H-inden-5-yl)-3-[2-(4-fluorophenyl)-2-propanyl]urea]",300,–
"CC1(O)CCc2c1cc(Cl)c(NC(=O)NCCC1CCCC1)c2Cl (stereo not drawn) [Example 3(13), 1-(2-cyclopentylethyl)-3-(4,6-dichloro-1-hydroxy-1-methyl-2,3-dihydro-1H-inden-5-yl)urea]",20,92
"CC1(O)CCc2c1cc(Cl)c(NC(=O)NCc1ccc(OC(F)(F)F)cc1F)c2Cl (stereo not drawn) [Example 3(16), 1-(4,6-dichloro-1-hydroxy-1-methyl-2,3-dihydro-1H-inden-5-yl)-3-[2-fluoro-4-(trifluoromethoxy)benzyl]urea]",30,–
"CC1(O)CCc2c1cc(Cl)c(NC(=O)NCCOc1ccc(F)cc1)c2Cl (stereo not drawn) [Example 3(23), 1-(4,6-dichloro-1-hydroxy-1-methyl-2,3-dihydro-1H-inden-5-yl)-3-[2-(4-fluorophenoxy)ethyl]urea]",600,83
"CC1(O)CCc2c1cc(Cl)c(NC(=O)NCCOC1CCCCC1)c2Cl (stereo not drawn) [Example 3(24), 1-[2-(cyclohexyloxy)ethyl]-3-(4,6-dichloro-1-hydroxy-1-methyl-2,3-dihydro-1H-inden-5-yl)urea]",400,–
"CC1(O)CCc2c1cc(Cl)c(NC(=O)NCC1CC3CCC1C3)c2Cl (stereo not drawn) [Example 3(25), 1-(bicyclo[2.2.1]hept-2-ylmethyl)-3-(4,6-dichloro-1-hydroxy-1-methyl-2,3-dihydro-1H-inden-5-yl)urea]",10,–
"CC1(CNC(=O)Nc2c(Cl)cc3c(c2Cl)CCC3(O)C(F)(F)F)CCOCC1 (stereo not drawn) [Example 12(2), 1-[4,6-dichloro-1-hydroxy-1-(trifluoromethyl)-2,3-dihydro-1H-inden-5-yl]-3-[(4-methyltetrahydro-2H-pyran-4-yl)methyl]urea]",200,85
"O=C(NCc1cccc(N2CCCCC2)n1)Nc1c(Cl)cc2c(c1Cl)CCC2(O)C(F)(F)F (stereo not drawn) [Example 12(9), 1-[4,6-dichloro-1-hydroxy-1-(trifluoromethyl)-2,3-dihydro-1H-inden-5-yl]-3-{[6-(1-piperidinyl)-2 pyridinyl]methyl}urea]",50,–
"O=C(NCc1ccc(-c2ccc(Cl)cc2)o1)Nc1c(Cl)cc2c(c1Cl)CCC2(O)C(F)(F)F (stereo not drawn) [Example 12(16), 1-{[5-(4-chlorophenyl)-2-furyl]methyl}-3-[4,6-dichloro-1-hydroxy-1-(trifluoromethyl)-2,3-dihydro-1H-inden-5-yl]urea]",10,–
"CC1(CNC(=O)Nc2c(Cl)cc3c(c2Cl)CCC3(O)C(F)(F)F)CC1 (stereo not drawn) [Example 12(17), 1-[4,6-dichloro-1-hydroxy-1-(trifluoromethyl)-2,3-dihydro-1H-inden-5-yl]-3-[(1-methylcyclopropyl)methyl]urea]",20,–
"O=C(NCc1cc2ccccc2[nH]1)Nc1c(Cl)cc2c(c1Cl)CCC2(O)C(F)(F)F (stereo not drawn) [Example 12(21), 1-[4,6-dichloro-1-hydroxy-1-(trifluoromethyl)-2,3-dihydro-1H-inden-5-yl]-3-(1H-indol-2-ylmethyl)urea]",20,–
"C[C@@H](NC(=O)Nc1c(Cl)cc2c(c1Cl)CC[C@@]2(O)C(F)(F)F)c1ccc(F)cc1 [Example 22, 1-[(1S)-4,6-dichloro-1-hydroxy-1-(trifluoromethyl)-2,3-dihydro-1H-inden-5-yl]-3-[(1R)-1-(4-fluorophenyl)ethyl]urea]",1,–
